PubChem BioAssay AID222 (DTP/NCI, 2004)
Inconclusive results and toxic doses are left out. The calls were made as follows: active = survival T/C of 150% or more; inactive = T/C below 125% in these data.

System: C57BL/6 mice, intracerebral ependymoblastoma, median survival T/C
Test: NCI In Vivo Anticancer Drug Screen. Data for tumor model Ependymoblastoma (intracerebral) in C57BL/6 mice
Conditions: endpoint: median survival time, higher = longer survival
Method: The antitumor activity of compounds was measured in mice bearing transplantable tumors. Survival or tumor size were measured and the results are expressed as the measurement made in the treated group (T) divided by the measurement made in the vehicle treated control group (C). The tumor model used in this assay is Ependymoblastoma (intracerebral) in C57BL/6 mice

Measured: T/C

Nc1ccc(C(=O)O)c(O)c1
inactive: dose: 67.5 mg/kg/injection, schedule: Q01DX005 (ip), vehicle: saline with Tween-80 103 % of control | dose: 135.0 mg/kg/injection, schedule: Q01DX005 (ip), vehicle: saline with Tween-80 94 % of control | dose: 270.0 mg/kg/injection, schedule: Q01DX005 (ip), vehicle: saline with Tween-80 86 % of control

CC/C(=C(/CC)c1ccc(O)cc1)c1ccc(O)cc1
inactive: dose: 8.0 mg/kg/injection, schedule: Q01DX005 (ip), vehicle: saline 94 % of control | dose: 16.0 mg/kg/injection, schedule: Q01DX005 (ip), vehicle: saline with Tween-80 101 % of control | dose: 16.0 mg/kg/injection, schedule: Q01DX005 (ip), vehicle: saline 100 % of control | dose: 32.0 mg/kg/injection, schedule: Q01DX005 (ip), vehicle: saline with Tween-80 112 % of control | dose: 32.0 mg/kg/injection, schedule: Q01DX005 (ip), vehicle: saline 99 % of control | dose: 64.0 mg/kg/injection, schedule: Q01DX005 (ip), vehicle: saline with Tween-80 100 % of control | dose: 64.0 mg/kg/injection, schedule: Q01DX005 (ip), vehicle: saline 110 % of control

O=C(CCCN1CCC(O)(c2cccc(C(F)(F)F)c2)CC1)c1ccc(F)cc1
inactive: dose: 25.0 mg/kg/injection, schedule: Q04DX003 (ip), vehicle: Klucel (hydroxypropylcellulose) (HPC) 103 % of control | dose: 50.0 mg/kg/injection, schedule: Q04DX003 (ip), vehicle: Klucel (hydroxypropylcellulose) (HPC) 97 % of control
